Consider three compounds from US8404829B2, “Predictive and therapeutic markers in ovarian cancer” (The Regents of the University of California, priority 2005, dated 2013).

One series deals with HEYA8 or SKOV3ip1 tumors. Nature of the series: Therapeutic study in ovarian tumor xenografts (tumor size). It counts as in vivo, mice. The conditions noted are these: siRNA 150 μg/kg twice weekly, paclitaxel 100 μg weekly, four weeks.
In another series the test system is HEY and CAOV4 cells. Kind of series: Apoptosis after siRNA treatment (phase contrast, PI DNA content distribution), PVT1 amplified lines. The conditions noted are these: for apoptosis induced DNA fragments (DNA distribution below the G1/diploid peak): CAOV4 cells, FIG. 9A; for induction of apoptosis / cell death: ovarian cancer cell lines in which PVT1 is amplified and over expressed. It counts as cell-based, human. On the procedure:
(§1) In this system, stock cell lines are transferred from flasks and 5×10^4 cells will be seeded into 24-well cell culture plates and transferred to a multi-plate incubator. Individual wells are treated with 40-120 nM siRNA and 2.5-7.5 μg/ml Lipofectamine 2000 (Invitrogen) in […] Opti-MEM reduced serum medium (Invtrogen) for 4 hours (with or without drug) in order to induce the necessary experimental perturbations. After 4 hours, the Opti-MEM are replaced with complete culture medium and the cells cultured for an additional 44 hours. Cell lysates then are extracted and re-formatted into standard 96-well microtiter plates using a Tecan multi-channel liquid handling system. These plates are then fed separately into RNA transcript, protein expression or cell analysis pipelines. For cellular profiling, treated cell culture plates are transported to a Cellomics High Content Imaging system (see below). Transcript profiling is accomplished using Affymetrix U133A/B arrays processed using the Affymetrix High Throughput Analysis system (installed at LBNL in December 2004 under an Affymetrix early access agreement). Protein profiling is accomplished using reverse phase protein at MD Anderson using lysate array technology in cases where suitable antibodies exist. Important pathway proteins are assessed using western blotting in cases where antibodies are not sufficiently specific for use on protein lysate arrays.
(§2) A Becton Dickinson cytometer can be used to measure DNA/BrdUrd distributions and/or DNA distributions during treatment. […] For BrdUrd/DNA analysis, cells are pulse labeled for 30 min. with 1 μM BrdUrd, fixed in 70% ethanol, treated with RNase, denatured and stained with propidium iodide (PI) and a fluorescently labeled antibody against BrdUrd as described in Dolbeare, F., Gratzner, H., Pallavicini, M. G. & Gray, J. W. Flow cytometric measurement of total DNA content and incorporated bromodeoxyuridine. Proc Natl Acad Sci USA 80, 5573-7 (1983), and placed in 96 well trays for analysis.
Referring again to FIG. 8, an additional measure of apoptosis can include staining with an Alexa Fluor® 488 conjugate of annexin V (Molecular Probes) and staining with propidium iodide (PI). PI is impermeable to apoptotic cells and live cells, but can enter and bind nucleic acids in necrotic cells. An apoptotic index can be assessed by measuring the fraction of “sub diploid” cells after staining for DNA content using PI as illustrated in FIG. 8A. Cells are fixed in 70% ethanol, treated with RNAse and placed in 96-well trays for DNA content analysis.

In series [1] the test system is OV90, in which MYC and PVT1 are not amplified; cell lines not expressing PVT1. Kind of series: Cell cycle / growth after siRNA treatment (BrdUrd/DNA distributions), unamplified lines. It counts as cell-based, human. The following applies: for cell cycle progression (BrdUrd/DNA distributions): OV90 (unamplified), 48 hours after siRNA treatment, FIG. 7A.
Series [2] relates to CAOV4 and HEY cell lines in which PVT1 and MYC are highly amplified. Nature of the series: Cell cycle / proliferation after siRNA treatment (BrdUrd/DNA distributions), PVT1/MYC amplified lines. The class given is cell-based, human. The following applies: for cell cycle progression (BrdUrd/DNA distributions): CAOV4 and HEY, 48 hours after siRNA treatment, FIG. 7A; for cell proliferation / G1-phase block: ovarian cancer cell lines in which PVT1 is amplified and over expressed. How it is done:
as §1, §2
In FIGS. 7B and 7C, the BrdU data is measuring proportions of cell cycle phases of ovarian cancer cell lines that overexpress PVT1. Referring to the graphs in FIGS. 7B and 7C, cells were left untreated (control, blue bar), treated with lipofectamine 2000 (lipo, purple bar) and green fluorescent protein (GFP; green bar) as controls or treated with PVT1 siRNA (PVT1 si, yellow bar, SEQ ID NO: 3 and 4). The error bars are standard deviation values from more than one experiment. If there are no error bars on a column, it means the experiment was not repeated.

For series [3], the system named is ovarian cancer cell lines that amplify PVT1. Kind of series: High content imaging for apoptosis (Cellomics Multiparameter Apoptosis 1 HitKit), lines that amplify PVT1. The class given is cell-based, human. An excerpt: (§3) A high content fluorescence image analysis system at LBNL (Cellomics, KineticScan) was used to characterize cellular responses to siRNA inhibitors including proliferation rate, apoptotic rate and motility. The KineticScan is an automated imaging instrument that scans through the bottom of clear-bottom 24-well plates, focuses on a field of cells, and acquires images at each selected color channel. The Cellomics software identifies and measures individual features and structures within each cell in a field of cells, so that up to hundreds of cell samples can be analyzed in parallel. The software then tabulates and presents the results in user-defined formats.
(§4) Referring to FIG. 10, PVT siRNA-treated ovarian cell lines were analyzed by high content imaging for apoptosis. Apoptotic cells were detected based on nuclear morphology, mitochondrial mass and/or membrane potential, and f-actin content following staining with the Cellomics Multiparameter Apoptosis 1 HitKit™. Nuclear morphology (i.e., condensation or fragmentation) are measured after staining with Hoechst 33342. Mitochondrial membrane potential and mitochondrial mass are measured after staining with MitoTracker® Red. F-actin is measured after staining with an Alexa Fluor® 488 conjugate of phalloidin (Ax488-ph). Changes in the actin cytoskeleton have been used as a potential parameter related to apoptotic changes. […]

Series [4] has as its system cell lines that do not amplify or over express PVT1. Nature of the series: Apoptosis / cell death after PVT1 siRNA, lines without PVT1 amplification. The following applies: cell lines in which PVT1 is not amplified or over expressed. The class given is cell-based, human. On the procedure: as §1, with “Transcript profiling is accomplished using Affymetrix U133A/B arrays processed using the Affymetrix High Throughput Analysis system (installed at LBNL in December 2004 under an Affymetrix early access agreement). Protein profiling is accomplished using reverse phase protein at MD Anderson using lysate array technology in cases where suitable antibodies exist.” left out
Referring again to FIG. 8, an additional measure of apoptosis can include staining with an Alexa Fluor® 488 conjugate of annexin V (Molecular Probes) and staining with propidium iodide (PI). […] An apoptotic index can be assessed by measuring the fraction of “sub diploid” cells after staining for DNA content using PI as illustrated in FIG. 8A. […]

The test system of series [5] is ovarian cancer cell lines that do not amplify PVT1. Nature of the series: High content imaging for apoptosis (Cellomics Multiparameter Apoptosis 1 HitKit), lines that do not amplify PVT1. It counts as cell-based, human.
Description: as §3, §4

“Also recorded” adds a separate entry of the source.

Description for HEYA8 or SKOV3ip1 tumors: For therapeutic studies, mice were injected with HEYA8 or SKOV3ip1 cells. One week later, mice were treated twice weekly with DOPC-EPHA2 siRNA (150 μg/kg) alone or in combination with weekly paclitaxel (100 μg), for four consecutive weeks.

For the compound `CC(=O)O[C@H]1C(=O)[C@@]2(C)[C@H]([C@H](OC(=O)c3ccccc3)[C@]3(O)C[C@H](OC(=O)[C@H](O)[C@@H](NC(=O)c4ccccc4)c4ccccc4)C(C)=C1C3(C)C)[C@]1(OC(C)=O)CO[C@@H]1C[C@@H]2O` [paclitaxel], the “effect on tumor size” value with HEYA8 or SKOV3ip1 tumors is given as “effective in reducing tumor size”.

For “MYC siRNA: siRNA against c-myc; sense GAGGCGAACACACAACGUC (SEQ ID NO: 18), antisense GACGUUGUGUGUUCGCCUC (SEQ ID NO: 19) (listed as RNA, chemistry not given here)”, in the series with HEY and CAOV4 cells, the “apoptosis induced DNA fragments (DNA distribution below the G1/diploid peak)” value is given as “not after MYC inhibition” and the “induction of apoptosis / cell death” value is given as “does not induce apoptosis”. Also, the “cell cycle progression (BrdUrd/DNA distributions)” value in series [1] was “not in the unamplified line”. In series [2], the “cell cycle progression (BrdUrd/DNA distributions)” value is on record as “strongly inhibited” and the “cell proliferation / G1-phase block” value is listed as “blocks cells in the G1-phase of the cell cycle”.

Take “PVT1 siRNA: siRNA against PVT1; sense CAGCCAUCAUGAUGGUACU (SEQ ID NO: 3), antisense AGUACCAUCAUGAUGGCUG (SEQ ID NO: 4) (listed as RNA, chemistry not given here)”: the “apoptosis induced DNA fragments (DNA distribution below the G1/diploid peak)” value in the series with HEY and CAOV4 cells is “Apoptosis induced DNA fragments are present after PVT1 inhibition”. Moreover, the “apoptotic blebbing (phase contrast photomicrographs)” value in the series with HEY and CAOV4 cells (HEY cells, treated 48 hours, FIG. 8) was “apoptotic blebbing after siRNA inhibition of PVT1 is apparent”. For the same compound, the “induction of apoptosis / cell death” value was “inducing cell death; also recorded: induces apoptosis” with HEY and CAOV4 cells; “induced apoptosis” with HEY and CAOV4 cells (listed as siRNA against PVT1); “inducing apoptosis” in the series with HEY and CAOV4 cells (listed as siRNAs against PVT1); “do not inhibit growth or induce cell death” in series [4]; “no apoptotic response” in series [4] (listed as siRNA against PVT1). Moreover, the “cell cycle progression (BrdUrd/DNA distributions)” value in series [1] is recorded as “not in the unamplified line”; in series [2], “strongly inhibited”. Further, the growth inhibition entry in series [1] (cell lines that do not amplify or over express PVT1) is “do not inhibit growth”. Also, the “effect on cell cycle (S phase, BrdU)” value in series [1] (ovarian cancer cell lines not expressing PVT1, FIG. 7C) is recorded as “does not affect the cell cycle”. Further, the “S phase proportion (BrdU)” value in series [2] (cell lines overexpressing PVT1, vs untreated, lipofectamine 2000 and GFP controls, FIG. 7B) was “much shorter than in the 3 control columns”. Moreover, the “cell proliferation / G1-phase block” value is on record as “inhibit cell proliferation by blocking cell in the G1-phase of the cell cycle; also recorded: blocks cells in the G1 phase of the cell cycle” in series [2] and “particularly effective in inhibiting proliferation” in series [2] (listed as siRNAs against PVT1). Moreover, the “apoptotic levels (nuclear morphology, mitochondrial mass/potential, f-actin)” value was “increased apoptotic levels, higher than levels of cells treated with paclitaxel” in series [3] (cell lines that amplify PVT1, FIG. 10C) and “normal apoptotic levels” in series [5] (cell lines that do not amplify PVT1). Also, the F-actin content result in series [3] (cell lines which overamplify PVT1, after PVT1 siRNA) was “Increased F-actin content”. The “F-actin content and thereby apoptosis” value in series [5] (cell lines having no increased PVT1 amplification, FIG. 10A) is recorded as “remained low”.
